Laboratory results reported in ChEMBL document CHEMBL3769303, “Discovery of membrane active benzimidazole quinolones-based topoisomerase inhibitors as potential DNA-binding antimicrobial agents” (Eur J Med Chem, 2016).
In brackets after ≈: the same amount, converted by molar mass. Activity calls are given as the source filed them. The calls are words filed in the database; no cut-off is given here.

Columns and labels:
[1] = system: Shigella dysenteriae; test: Antibacterial activity against Shigella dysenteriae by micro broth dilution method; assay type: functional
[2] = system: Staphylococcus aureus; test: Antibacterial activity against methicillin-resistant Staphylococcus aureus N315 by micro broth dilution method; assay type: functional
[3] = system: Staphylococcus aureus; test: Antibacterial activity against Staphylococcus aureus ATCC 25923 by micro broth dilution method; assay type: functional
[4] = system: Micrococcus luteus; test: Antibacterial activity against Micrococcus luteus ATCC 4698 by micro broth dilution method; assay type: functional; conditions: NCTC 2665
[5] = system: Bacillus spizizenii; test: Antibacterial activity against Bacillus subtilis ATCC 6633 by micro broth dilution method; assay type: functional
[6] = system: Escherichia coli; test: Antibacterial activity against Escherichia coli DH52 by micro broth dilution method; assay type: functional
[7] = system: Escherichia coli; test: Antibacterial activity against Escherichia coli JM109 by micro broth dilution method; assay type: functional
[8] = system: Pseudomonas aeruginosa; test: Antibacterial activity against Pseudomonas aeruginosa ATCC 27853 by micro broth dilution method; assay type: functional
[9] = Antibacterial activity against Bacillus proteus ATCC 13315 by micro broth dilution method; assay type: functional
[10] = system: Salmonella enterica; test: Antibacterial activity against Salmonella enterica ATCC 14028 by micro broth dilution method; assay type: functional
[11] = system: Micrococcus luteus; test: Potency index, ratio of chloromycin MIC to compound MIC for Micrococcus luteus ATCC 4698; assay type: functional, NCTC 2665
[12] = system: Bacillus; test: Potency index, ratio of chloromycin MIC to compound MIC for Bacillus proteus ATCC 13315; assay type: functional
[13] = system: Salmonella enterica; test: Potency index, ratio of chloromycin MIC to compound MIC for Salmonella enterica ATCC 14028; assay type: functional
[14] = system: Micrococcus luteus; test: Potency index, ratio of ciprofloxacin MIC to compound MIC for Micrococcus luteus ATCC 4698; assay type: functional, NCTC 2665
[15] = system: Micrococcus luteus; test: Potency index, ratio of clinafloxacin MIC to compound MIC for Micrococcus luteus ATCC 4698; assay type: functional, NCTC 2665
[16] = system: Bacillus; test: Potency index, ratio of clinafloxacin MIC to compound MIC for Bacillus proteus ATCC 13315; assay type: functional
[17] = system: Salmonella enterica; test: Potency index, ratio of clinafloxacin MIC to compound MIC for Salmonella enterica ATCC 14028; assay type: functional
[18] = Antifungal activity against Candida mycoderma ATCC 9888 after 24 hrs by micro broth dilution method; assay type: functional; conditions: Candida vini
[19] = system: Staphylococcus aureus; test: Bactericidal activity against methicillin-resistant Staphylococcus aureus N315 assessed as reduction in log10 CFU count at 6 times MIC after 24 hrs by time kill assay; assay type: functional
[20] = system: Staphylococcus aureus; test: Antibiofilm activity against methicillin-resistant Staphylococcus aureus N315 after 24 hrs by crystal violet staining-based plate reader assay; assay type: functional, organism-based; conditions: N315, 24 h
[21] = system: Escherichia coli; test: Antibiofilm activity against Escherichia coli DH52 after 24 hrs by crystal violet staining-based plate reader assay; assay type: functional, organism-based; conditions: DH52, 24 h
[22] = system: Staphylococcus aureus; test: Antibiofilm activity against methicillin-resistant Staphylococcus aureus N315 assessed as log10 CFU count at 0.125 ug/ml after 24 hrs (reference value: 13.6 log10 CFU/ml); assay type: functional
[23] = system: Staphylococcus aureus; test: Antibiofilm activity against methicillin-resistant Staphylococcus aureus N315 assessed as log10 CFU count at 0.25 ug/ml after 24 hrs (reference value: 13.6 log10 CFU/ml); assay type: functional
[24] = system: Staphylococcus aureus; test: Antibiofilm activity against methicillin-resistant Staphylococcus aureus N315 assessed as log10 CFU count at 1 ug/ml after 24 hrs (reference value: 13.6 log10 CFU/ml); assay type: functional
[25] = system: Staphylococcus aureus; test: Antibiofilm activity against methicillin-resistant Staphylococcus aureus N315 assessed as log10 CFU count at 2 ug/ml after 24 hrs (reference value: 13.6 log10 CFU/ml); assay type: functional
[26] = system: Staphylococcus aureus; test: Antibiofilm activity against methicillin-resistant Staphylococcus aureus N315 assessed as reduction in log10 CFU count after 24 hrs; assay type: functional, organism-based; conditions: N315, 24 h
[27] = system: Escherichia coli; test: Antibiofilm activity against Escherichia coli DH52 assessed as log10 CFU count at 0.5 ug/ml after 24 hrs (reference value: 16.2 log10CFU/ml); assay type: functional
[28] = system: Escherichia coli; test: Antibiofilm activity against Escherichia coli DH52 assessed as log10 CFU count at 0.25 ug/ml after 24 hrs (reference value: 16.2 log10CFU/ml); assay type: functional
[29] = system: Escherichia coli; test: Antibiofilm activity against Escherichia coli DH52 assessed as log10 CFU count at 2 ug/ml after 24 hrs (reference value: 16.2 log10CFU/ml); assay type: functional
[30] = system: Escherichia coli; test: Antibiofilm activity against Escherichia coli DH52 assessed as log10 CFU count at 4 ug/ml after 24 hrs (reference value: 16.2 log10CFU/ml); assay type: functional
[31] = system: Escherichia coli; test: Antibiofilm activity against Escherichia coli DH52 assessed as reduction in log10 CFU count after 48 hrs; assay type: functional, organism-based; conditions: DH52, 48 h
[32] = system: Staphylococcus aureus; test: Antibacterial activity against methicillin-resistant Staphylococcus aureus N315 assessed as membrane permeabilization at 12 times MIC measured for 15 mins by propidium iodide staining-based method; assay type: functional, organism-based
[33] = system: Escherichia coli; test: Antibacterial activity against Escherichia coli DH52 assessed as membrane permeabilization at 12 times MIC measured for 15 mins by propidium iodide staining-based method; assay type: functional, organism-based
[34] = system: Staphylococcus aureus; test: Antibacterial activity against methicillin-resistant Staphylococcus aureus N315 measured after 12 passages; assay type: functional
[35] = system: Escherichia coli; test: Inhibition of Escherichia coli topoisomerase 4 assessed as DNA relaxation using PUC19T-DNA at 10 uM after 2 hrs by ehtidium bromide staining-based agarose gel electrophoresis
[36] = system: HEK293; test: Cytotoxicity against HEK293 cells after 24 hrs by CCK8 assay; assay type: cell-based; conditions: Homo sapiens, HEK293, 24 h
[37] = system: Calf thymus DNA; test: Binding affinity to calf thymus DNA by UV-visible spectroscopy; assay type: nucleic-acid assay; conditions: Bos taurus
[38] = system: Cyberlindnera jadinii; test: Antifungal activity against Candida utilis ATCC 9950 after 24 hrs by micro broth dilution method; assay type: functional; conditions: Williopsis jadinii, ATCC 9950, 24 h
[39] = system: Aspergillus flavus; test: Antifungal activity against Aspergillus flavus ATCC 204304 after 24 hrs by micro broth dilution method; assay type: functional; conditions: ATCC 204304, 24 h
[40] = system: Saccharomyces cerevisiae; test: Antifungal activity against Saccharomyces cerevisiae ATCC 9763 after 24 hrs by micro broth dilution method; assay type: functional; conditions: ATCC 9763, 24 h
[41] = system: Candida albicans; test: Antifungal activity against Candida albicans ATCC 10231 after 24 hrs by micro broth dilution method; assay type: functional; conditions: ATCC 10231, 24 h
[42] = system: Micrococcus luteus; test: Potency index, ratio of norfloxacin MIC to compound MIC for Micrococcus luteus ATCC 4698; assay type: functional, NCTC 2665
[43] = system: Salmonella enterica; test: Potency index, ratio of norfloxacin MIC to compound MIC for Salmonella enterica ATCC 14028; assay type: functional

O=C(O)c1cn(C2CC2)c2cc(N3CCN(Cc4nc5ccccc5n4Cc4ccc(Cl)cc4Cl)CC3)c(F)cc2c1=O
MIC [1]: 1 µg/mL (≈ 1.61 µM) | MIC [2]: 0.125 µg/mL (≈ 0.201 µM) | MIC [3]: 8 µg/mL (≈ 12.9 µM) | MIC [4]: 0.0625 µg/mL (≈ 0.101 µM) | MIC [5]: 4 µg/mL (≈ 6.45 µM) | MIC [6]: 0.125 µg/mL (≈ 0.201 µM) | MIC [7]: 1 µg/mL (≈ 1.61 µM) | MIC [8]: 0.5 µg/mL (≈ 0.806 µM) | MIC [9]: 0.0312 µg/mL (≈ 0.0503 µM) | MIC [10]: 0.0312 µg/mL (≈ 0.0503 µM) | Ratio [11]: 128 | Ratio [12]: 1025 | Ratio [13]: 1025 | Ratio [14]: 32 | Ratio [15]: 8 | Ratio [16]: 16 | Ratio [17]: 8 | MIC80 [18]: 0.25 µg/mL (≈ 0.403 µM) | Activity [19]: 3 log10CFU/ml | IC50 [20]: 0.125 µg/mL (≈ 0.201 µM) | IC50 [21]: 0.25 µg/mL (≈ 0.403 µM) | Activity [22]: 10.5 log10CFU/ml | Activity [23]: 9.6 log10CFU/ml | Activity [24]: 5 log10CFU/ml | Activity [25]: 0.1 log10CFU/ml | EC50 [26]: 0.76 µg/mL (≈ 1.22 µM) | Activity [27]: 10.1 log10CFU/ml | Activity [28]: 12.2 log10CFU/ml | Activity [29]: 7.2 log10CFU/ml | Activity [30]: 3.6 log10CFU/ml | EC50 [31]: 1.5 µg/mL (≈ 2.42 µM) | Activity [32]: Active | Activity [33]: Active | MIC [34]: 0.125 µg/mL (≈ 0.201 µM) | inhibition [35]: Active | IC50 [36]: 106 µg/mL (≈ 171 µM) | K [37]: 4.3 ×10⁴ L/mol | MIC80 [38]: 0.125 µg/mL (≈ 0.201 µM) | MIC80 [39]: 0.5 µg/mL (≈ 0.806 µM) | MIC80 [40]: 1 µg/mL (≈ 1.61 µM) | MIC80 [41]: 0.5 µg/mL (≈ 0.806 µM) | Ratio [42]: 32 | Ratio [43]: 32
